In patent publication US20230256050A1, “COMPOSITIONS, METHODS AND USES COMPRISING TENEURIN C-TERMINAL ASSOCIATED PEPTIDE -1 (TCAP-1) FOR ENHANCING MUSCLE PERFORMANCE” (priority 2016, published 2023):
Where no end group is shown, it is not given here.

Legend:
[1] = system: diacylglycerol (DAG) levels, downstream signaling of ADGRL1, C2C12 skeletal cell line; experiment: Mouse diacylglycerol (DAG) ELISA in C2C12 cell lysates; assay type: cell-based; details: TCAP-1 100 nM, after 60 minutes, p<0.0001
Procedure: (§1) Immortalized murine skeletal cell line C2C12 cells were used for all in vitro studies. Cells were maintained at 60-70% confluency with Dulbecco’s Modified Eagle Medium (DMEM) supplemented with 20% fetal bovine serum (FBS) and penicillin/streptomycin antibiotic combination. To induce differentiation, the media was changed to DMEM supplemented with 10% horse serum and penicillin/streptomycin antibiotic combination, and cells were allowed to differentiate for 6 days (media replaced every 24 h). For treatment, cells were serum starved for 3 h and then treated with either vehicle (ddH20) or TCAP-1 (100 nM).
(§2) The protocols provided by commercial DAG and IP3 assays (MyBiosource, San Diego, California USA). Briefly, immortalized mouse C2C12 cells were prepared using the TCAP-treatment protocol described previously. Cells were added to a microELISA plate coated with purified mouse DAG or IP3 antibodies, respectively. Subsequently, 3,3′,5,5′-tetramethylbenzidine (TMB) solution was added to detect the HRP-conjugates as the colour changes. Finally, a sulphuric acid solution was added to terminate the reaction. The absorbance change was measured at a wavelength of 450 nm using a spectrophotometer (SpectraMax Plus).

[2] = system: inositol triphosphate (IP3) levels, downstream signaling of ADGRL1, C2C12 skeletal cell line; experiment: Mouse inositol triphosphate (IP3) ELISA in C2C12 cell lysates; assay type: cell-based; details: TCAP-1 100 nM, after 15 minutes, p<0.0001
Procedure: as §1, §2

[3] = system: C2C12 murine skeletal muscle cells; experiment: Radioactive glucose (3H-2-deoxyglucose) uptake in vitro; assay type: cell-based, mouse; details: 100 nM, at 30 and 45 minutes (p<0.0001, p<0.001)
Procedure: as §1
Immortalized murine skeletal C2C12 cells were allowed to proliferate and differentiate and glucose uptake protocol was followed as previously described with minor modifications (Maher et al., 1991; Uemura & Greenlee, 2006). At day 6 post-plating, cells were washed 2x with Locke’s buffer (154 mM NaCl, 5.6 mM KCI, 2.3 mM CaCl2, 3.6 mM NaHCOs, 5 mM HEPES) without serum and glucose. The culture was incubated in the Locke’s buffer for 1 h at 37° C. followed by exposure to 100 nM insulin, 100 nM TCAP-1, 100 nM SC-TCAP-1, or saline. 3H-2-deoxyglucose (0.5 µCi/ml) was added to culture 5 min before termination of treatment exposure. […] Cell lysates were used for determination of radioactivity by a beta liquid scintillation counter (Beckman Coulter).

[4] = system: hind limb muscle; experiment: Functional positron emission tomography (fPET) of 18F-deoxyglucose uptake; assay type: in vivo, Wistar rats; details: single subcutaneous 10 nmoles/kg, 3 days later, p<0.1, n=5
Procedure: Male adult Sprague-Dawley rats (-350 g) were used for the muscle function studies. Male adult Wistar rats (-250 g) were used for the functional positron emission tomography tests. Functional Positron emission tomography (fPET) was performed using a Siemens Inveon microPET small animal PET scanner, and [18F]-2-deoxyglucose (FDG) radiotracer (IBA Molecular) and protocol was followed as previously described (Hogg et al., manuscript in review). PET scans were acquired on all of the animals 3 days post-dosing. The animals were injected intravenously with approximately 1mCi of FDG. The FDG uptake occurred under anesthesia for 90 min. Body temperature was maintained with a thermostat-regulated recirculating water heated pad. Static emission data was acquired for 20 minutes. […] The total PET counts were calculated from all voxels within the segmented volumes of interest. (Percent injected dose (%ID)) was calculated by normalizing the total counts in each tissue of interest at each time point, to the whole body total counts calculated over 1 min from the whole body max uptake time point, for each animal, during the first 90 min post FDG administration.) These images were then compiled into 3D projections, thus allowing for accurate analyses of muscle tissue. Fluorescence of the mean pixel was calibrated to volume of muscle being analyzed (mean pixel fluorescence/mm3).

[5] = system: tibialis anterior muscle; experiment: Electrical muscle stimulation, 6-minute fatigue protocol; assay type: in vivo, Sprague-Dawley rats
Procedure: Male adult Sprague-Dawley rats (-350 g) were used for the muscle function studies. Male adult Wistar rats (-250 g) were used for the functional positron emission tomography tests. Electrical muscle stimulation protocol was followed as described by Holwerda and Locke (2014) with minor modifications. Briefly, sixteen male adult Sprague-Dawley rats ([…]) were allowed to acclimate for 1 week on a 12:12 LD cycle. For 5 days daily, half of the rats (n=8) were treated with physiological saline control, and the other half (n=8) was treated with mouse-TCAP-1 (10 nmoles/kg) by subcutaneous injection in the interscapular region. Three days from the last treatment, animals were anesthetized with 5% isofluorane in 1 L/min O2, and subsequently positioned into testing apparatus. A 25 g needle was inserted through the soft tissue of the knee in order to ensure a stable position. The foot was placed on the lever attached to a servomotor and taped in position. Electrodes were placed below the skin but adjacent to the tibialis anterior (TA) muscle. The correct voltages for peak tetanic tension was established by increasing voltage by 1 volt increments. The test began with a single tetanus and single twitch protocol to establish baseline. The 6-min fatigue protocol (8 V, 200 Hz, 300 ms) was started. Immediately following the termination of the protocol, tetanic and twitch tensions were recorded at 0, 1, and 5 mins. Animals were immediately sacrificed after recovery measurements were recorded.

[6] = system: tibialis anterior muscle; experiment: Oxidative capacity, NADH staining of muscle cryosections; assay type: in vivo, Sprague-Dawley rats; details: 10 nmoles/kg for 5 days
Procedure: Tibialis anterior muscles from the treated Sprague-Dawley rats were flash-frozen in liquid-nitrogen-cooled isopentane until cryosectioned at 10 µm thickness. Cryosections were then washed 2X with PBS, and then 0.2% NBT solution in PBS containing 0.1% NADH was added and allowed to incubate for 30 min at 37° C. Slides were washed 2X in PBS before mounted with cryoseal and imaged with Canon camera and Leica bright-field microscope at 100x magnification. Images were analyzed on Image J software and frequency distribution curves were constructed, where the darker the pixel represents higher NADH levels. Frequency curves were built based on average of five pictures per tissue, with a minimum of three tissues analysed for each group.

[7] = system: C2C12 myotubes; experiment: Calcium imaging in live C2C12 cells (fluo-4); assay type: cell-based, mouse; details: caffeine 4 mM, TCAP-1 100 nM pre-treatment for 1 hour; for peak in cytosolic calcium on caffeine application (fluo-4 fluorescence): compared with caffeine alone; for decline of cytosolic calcium after the caffeine peak: over 5 minutes
Procedure: For live-cell fluorescence experiments, immortalized murine C2C12 skeletal muscle cells were grown and fully differentiated on Poly-D-lysine coated 25 mm round No. 1 glass coverslips (Warner Instruments, Hamden, CT, USA). Cells were grown in Dulbecco’s Modified Eagle Medium (DMEM) supplemented with 20% fetal bovine serum (FBS), 100 U/ml penicillin and 100 µg/ml streptomycin (Invitrogen, Burlington, ON, Canada), and stimulated differentiation with DMEM supplemented with 10% horse serum (HS), 100 U/ml penicillin and 100 µg/ml streptomycin (Invitrogen, Burlington, ON, Canada. Changes in intracellular calcium were assessed using the membrane-permeable calcium sensitive fluorescent indicator fluo-4, AM (Invitrogen, Burlington, ON, Canada). Cells were loaded with fluo-4 by incubating a single coverslip in DMEM containing 10 µM fluo-4 (from a 1 mM stock solution in DMSO) for 30 min (37° C.) followed by a 15 min wash in Locke’s Buffer containing (in mM): 154 mM NaCl, 4 mM NaHCOs, 5 mM KCI, 2.3 mM CaCl2, 1 mM MgCl2, 5 mM glucose and 10 mM Hepes (pH 7.4); osmolarity 305-310 mOsmol at 22° C. During loading, the acetate groups on fluo-4 are removed by intracellular esterases reducing dye leakage. In experiments assessing changes in intracellular calcium, coverslips were placed in a flow-through bath chamber (RC-40HP, Warner Instruments, Hamden, CT, USA) of an inverted microscope (Axio Observer Z1, Zeiss, Toronto, ON, Canada) equipped with a 40× oil immersion objective. Cells were continuously bulk perfused with Locke’s buffer via a gravity drip perfusion system at a rate of 2-3 ml min-1 and experiments were conducted at a room temperature (RT) of 22° C. Changes in fluo-4 fluorescence was imaged using a green fluorescent protein (GFP) filter set (Semrock, Rochester, NY, USA) and a X-Cite 120 fluorescence illumination system (Excelitas Technologies, Mississauga, ON, Canada), controlled by Volocity 4.0 imaging software (Quorum Technologies Inc., Guelph, ON, Canada). Fluorescence emissions were detected with an Orca-ER Hamamatsu B/W CCD digital camera (Hamamatsu, Middlesex, NJ, USA). Fluo-4 was excited with a wavelength of 480 nm for 100 ms every 5 sec and fluorescence emission was measured at wavelength of 516 nm. Caffeine (4 mM; Sigma Aldrich, Oakville, ON) was applied to C2C12 myotubes to stimulate calcium release from the sarcoplasmic reticulum. Cells were either pre-treated with TCAP-1 (100 nM) for 1 hour before stimulation with caffeine. Using velocity 4.0 imaging software, multiple regions of interests (ROIs) were taken from each coverslip to be analysed.

[8] = system: C2C12 myotubes; experiment: Mitochondrial membrane potential in C2C12 cells with Rhodamine-123; assay type: cell-based, mouse; details: caffeine 4 mM; TCAP-1 100 nM pre-treatment for 1 hour, compared with caffeine alone
Procedure: C2C12 myotubes were cultured as previously described above. Changes in mitochondrial membrane potential were assessed using fluorescent indicator Rhodamine123 (R123). Cells were loaded with R123 by incubating a single coverslip in DMEM containing 5 µM R123 (from a 1 mM stock solution in DMSO) for 30 min (37° C.) followed by a 15 min wash in Locke’s Buffer containing (in mM): 154 mM NaCl, 4 mM NaHCOs, 5 mM KCI, 2.3 mM CaCl2, 1 mM MgCl2, 5 mM glucose and 10 mM Hepes (pH 7.4); osmolarity 305-310 mOsmol at 22° C. […] Changes in R123 fluorescence was imaged using a green fluorescent protein (GFP) filter set (Semrock, Rochester, NY, USA) and a X-Cite 120 fluorescence illumination system (Excelitas Technologies, Mississauga, ON, Canada), controlled by Volocity 4.0 imaging software (Quorum Technologies Inc., Guelph, ON, Canada). Fluorescence emissions were detected with an Orca-ER Hamamatsu B/W CCD digital camera (Hamamatsu, Middlesex, NJ, USA). R123 was excited with a wavelength of 480 nm for 100 ms every 5 sec and fluorescence emission was measured at wavelength of 516 nm. […] Using velocity 4.0 imaging software, multiple regions of interests (ROIs) were taken from each coverslip to be analysed.

[9] = system: neurons; details: via increases of glucose transporter GLUT-3 to the plasma membrane (unpublished); cited from earlier work
[10] = 10 nmoles/kg s.c. for 5 days, baseline

TCAP-1: 41-mer peptide from the C-terminal of teneurin-1, synthesized amidated, suspended in 0.9% saline for subcutaneous injection (QQLLGTGRVQGYDGYFVLSVEQYLELSDSANNIHFMRQSEI-NH2)
DAG levels compared to vehicle treatment [1]: significantly decreased
IP3 levels [2]: significantly reduced
3H-DG uptake into C2C12 cells vs vehicle [3]: significantly increased
18F-DG uptake in hind limb muscles (fPET fluorescence) [4]: significant increase
fatigue response curve vs vehicle ([5]; 10 nmoles/kg s.c. for 5 days): responded comparably
tetanic force production throughout fatigue or recovery vs vehicle ([5]; 10 nmoles/kg s.c. for 5 days): responded comparably
force generated in recovery after fatigue protocol ([5]; 10 nmoles/kg s.c. for 5 days, after 6-minute fatigue protocol): increased
contraction relaxation rate at baseline vs vehicle [5, 10]: increased
contraction velocity at baseline vs vehicle [5, 10]: significantly slower
half relaxation time (1/2RT) over fatigue protocol ([5]; 10 nmoles/kg s.c. for 5 days, compared to vehicle, p<0.05): sustained
muscle mass vs vehicle ([5]; 10 nmoles/kg s.c. for 5 days, extracted muscles): no difference
twitch peak force at pre-test (baseline) vs vehicle ([5]; 10 nmoles/kg s.c. for 5 days, tested 3 days after last injection, p<0.05): significantly higher
rate of the contractions (max dx/dt) over fatigue protocol ([5]; 10 nmoles/kg s.c. for 5 days, vehicle group steadily declined, p<0.05): maintained throughout the protocol
fiber size vs vehicle ([5]; data not shown): no difference
NADH staining (oxidative capacity), unstimulated control limb, vs vehicle ([6]; contralateral control limb, p<0.05): significant increased frequency of a stronger NADH-positive staining
TCAP-1-mediated increase in oxidative capacity (NADH), stimulated limb, vs vehicle ([6]; exercised (stimulated) limb, p=0.1): maintained
peak in cytosolic calcium on caffeine application (fluo-4 fluorescence) [7]: significantly lower peak
decline of cytosolic calcium after the caffeine peak [7]: significantly faster decline
mitochondrial membrane potential (Rhodamine123 fluorescence) [8]: significantly higher membrane depolarization
glucose uptake in neurons [9]: significantly increases glucose uptake

Cn1c(=O)c2c(ncn2C)n(C)c1=O [caffeine, Caffeine, reference compound]
peak in cytosolic calcium on caffeine application (fluo-4 fluorescence) [7]: strong peak in cytosolic calcium
decline of cytosolic calcium after the caffeine peak [7]: gradual decrease over 5 minutes
mitochondrial membrane potential (Rhodamine123 fluorescence) [8]: mitochondrial membrane depolarization
